# Experiments:
# [1] = tested on: Chlamydia trachomatis; assay: Chlamydia assay: transient treatment of Chlamydia with maleimides, infection of McCoy cells, iodine-stained inclusions counted; assay type: cell-based; conditions: for IODINE-STAINED INCLUSIONS/FIELD F1: field 1; for IODINE-STAINED INCLUSIONS/FIELD F2: field 2; for IODINE-STAINED INCLUSIONS/FIELD F3: field 3; for IODINE-STAINED INCLUSIONS/FIELD F4: field 4; for IODINE-STAINED INCLUSIONS/FIELD F5: field 5; for MEAN COUNT/FIELD (iodine-stained inclusions): mean of 5 fields; for COMMENTS: inclusions seen on entire coverslip: re-examined under low power; for TOTAL COUNT/FIELDS (iodine-stained inclusions): sum of 5 fields; for inhibition of the infection of McCoy cells with chlamydia: transient exposure of chlamydia to compound
# Experimental: Purified Chlamydia trachomatis (250 μl) was added to 250 μl of each compound concentration and the mixtures incubated at room temperature for 5 minutes. The tubes were then centrifuged (15000 rpm, 15 minutes), the supernatant decanted and the pellet washed serum free MEM (with 0.5 mls). This step was repeated and the resultant pellet resuspended MEM (in 0.5 ml) and inoculated into a confluent shell vial (coverslip) cultures of McCoy cells. The cultures were centrifuged (3000 rpm, 1 hour at 37° C.) and incubated for a further 2 hours prior to being changed onto MEM with 10% foetal calf serum, I μg/rl cycloheximide, 0.5% added glucose, vancomycin, streptomycin and amphoteracin B (Fungizone). The cultures were incubated for 68 hours, fixed in methanol and stained with Lugol's iodine. 3 replicates of each positive control (with and without DMSO) were included, as well as 2 uninoculated cell controls. Each coverslip culture was examined using low power (10×) objective to ensure that inclusions were evenly distributed and 5 high power (×40) fields were selected at random from different areas of the coverslip. Iodine stained inclusions were counted. Where no inclusions were seen on high power, the culture was re-examined under low power. Table 1. Effect of Transient Treatment with maleimides on Chlamydia Infection of McCoy Cell In Vitro. Chlamydia was pre-treated with each of the indicated maleimides for 5 minutes and the compound removed by centrifugation. McCoy cells were then exposed to the compound pre-treated chlamydia for 68 hours and inclusions counted following staining of cells with Lugols iodine.
# [2] = tested on: HIV (IHV-1RF); assay: Anti-viral (virucidal) assay: plate-bound HIV treated 10 minutes, C8166 cells added, syncytium score and XTT; assay type: cell-based; conditions: for Syncytia score day 5 (quadruplicate wells) / Syncytia score day 6 (quadruplicate wells): C8166 cells; for Mean Optical Readings at 450 nm: XTT cell viability; for Syncytia score day 6 (quadruplicate wells) / Mean Optical Readings at 450 nm / IC50: day 6; for IC50: XTT, virus treated 10 minutes, read-out: IC50 (virucidal)
# Experimental: HIV was attached to the surface of 96-well cell culture plates using 100 μl of 50 μg/ml poly-L-lysine hydrobromide (PLL) of molecular weight >300 K for 1 h at RT. The outer wells were left uncoated and filled with 250 μl of PBS to counteract the effects of evaporation. The coated wells were washed twice with PBS and 25 μl of RPMI 1640 medium containing 5×10^3 TCID50 of IHV-1RF was added and incubated for 1 h at RT. The wells were then washed twice with PBS and 25 μl of varying concentrations of the test compounds made up with serum free medium (containing a constant 10% DMSO) were added to the wells in quadruplicate and the plates incubated at 37° C. for 10 minutes. The wells were again washed twice with PBS and 5×10^4 C8166 cells in a volume of 300 μl distributed to each well and the plates incubated for 5 and 6 days respectively. On days 5 and 6 the cells were assessed microscopically for the presence of cytopathic effect (syncytium formation) and recorded. In order to quantify the cytopathic effect, XIT which is metabolised by viable but not dead cells, was added and the absorbance read at 450 nm after […] incubation at 37° C.
# An assessment of viral cytopathic effect was made microscopically on days 5 and 6, but the end point of the experiment was on day 6 when the level of virus infection (as determined by cell viability) was quantified by the use of XTT.
# [3] = final conc 0.02 (M), working conc 0.04 (M)
# [4] = final conc 0.4 (M), working conc 0.8 (M)
# [5] = final conc 1 (M), working conc 2 (M), 5 minutes pre-treatment, McCoy cells 68 hours
# [6] = final conc 1 (M), working conc 2 (M)
# [7] = Human immunodeficiency virus 1, C8166
smiles,measurement,setting,value
"O=C1C=CC(=O)N1CCN1C(=O)C=CC1=O [Compound 1, ethyl bis-maleimide]",IODINE-STAINED INCLUSIONS/FIELD F1,[1]; [3],0 inclusions/field
same,IODINE-STAINED INCLUSIONS/FIELD F2,[1]; [3],0 inclusions/field
same,IODINE-STAINED INCLUSIONS/FIELD F3,[1]; [3],0 inclusions/field
same,IODINE-STAINED INCLUSIONS/FIELD F4,[1]; [3],0 inclusions/field
same,IODINE-STAINED INCLUSIONS/FIELD F5,[1]; [3],0 inclusions/field
same,MEAN COUNT/FIELD (iodine-stained inclusions),[1]; [3],0 inclusions/field
same,COMMENTS: inclusions seen on entire coverslip,[1]; [3],6 inclusions
same,TOTAL COUNT/FIELDS (iodine-stained inclusions),[1]; [3],0
same,IODINE-STAINED INCLUSIONS/FIELD F1,[1]; [4],0 inclusions/field
same,IODINE-STAINED INCLUSIONS/FIELD F2,[1]; [4],0 inclusions/field
same,IODINE-STAINED INCLUSIONS/FIELD F3,[1]; [4],0 inclusions/field
same,IODINE-STAINED INCLUSIONS/FIELD F4,[1]; [4],0 inclusions/field
same,IODINE-STAINED INCLUSIONS/FIELD F5,[1]; [4],0 inclusions/field
same,MEAN COUNT/FIELD (iodine-stained inclusions),[1]; [4],0 inclusions/field
same,COMMENTS: inclusions seen on entire coverslip,[1]; [4],No
same,TOTAL COUNT/FIELDS (iodine-stained inclusions),[1]; [4],0
same,IODINE-STAINED INCLUSIONS/FIELD F1,[1]; [5],0 inclusions/field
same,IODINE-STAINED INCLUSIONS/FIELD F2,[1]; [6],0 inclusions/field
same,IODINE-STAINED INCLUSIONS/FIELD F3,[1]; [6],0 inclusions/field
same,IODINE-STAINED INCLUSIONS/FIELD F4,[1]; [6],0 inclusions/field
same,IODINE-STAINED INCLUSIONS/FIELD F5,[1]; [6],0 inclusions/field
same,MEAN COUNT/FIELD (iodine-stained inclusions),[1]; [6],0 inclusions/field
same,COMMENTS: inclusions seen on entire coverslip,[1]; [6],No
same,TOTAL COUNT/FIELDS (iodine-stained inclusions),[1]; [6],0
same,inhibition of the infection of McCoy cells with chlamydia,[1],dose-dependent inhibition
same,Syncytia score day 5 (quadruplicate wells),[2]; Conc 0.003 mM,++++ (50-100% syncytia)
same,Syncytia score day 6 (quadruplicate wells),[2]; Conc 0.003 mM,++++ (50-100% syncytia)
same,Mean Optical Readings at 450 nm,[2]; Conc 0.003 mM,0.4875
same,Syncytia score day 5 (quadruplicate wells),[2]; Conc 0.01 mM,++++ (50-100% syncytia)
same,Syncytia score day 6 (quadruplicate wells),[2]; Conc 0.01 mM,++++ (50-100% syncytia)
same,Mean Optical Readings at 450 nm,[2]; Conc 0.01 mM,0.5028
same,Syncytia score day 5 (quadruplicate wells),[2]; Conc 0.03 mM,++++ (50-100% syncytia)
same,Syncytia score day 6 (quadruplicate wells),[2]; Conc 0.03 mM,++++ (50-100% syncytia)
same,Mean Optical Readings at 450 nm,[2]; Conc 0.03 mM,0.5142
same,Syncytia score day 5 (quadruplicate wells),[2]; Conc 0.1 mM,++++ (50-100% syncytia)
same,Syncytia score day 6 (quadruplicate wells),[2]; Conc 0.1 mM,++++ (50-100% syncytia)
same,Mean Optical Readings at 450 nm,[2]; Conc 0.1 mM,0.5347
same,Syncytia score day 5 (quadruplicate wells),[2]; Conc 0.3 mM,+++ (25-50% syncytia)
same,Syncytia score day 6 (quadruplicate wells),[2]; Conc 0.3 mM,+++ (25-50% syncytia)
same,Mean Optical Readings at 450 nm,[2]; Conc 0.3 mM,0.5853
same,Mean Optical Readings at 450 nm,[2]; Conc 1 mM,1.181
same,IC50,[2]; [7],1000 µM
"O=C1C=CC(=O)N1c1ccc(OCCOCCOCCOCCOc2ccc(N3C(=O)C=CC3=O)cc2)cc1 [Compound 2, PEG(5) bis phenyl bis maleimide]",IODINE-STAINED INCLUSIONS/FIELD F1,[1]; [3],3 inclusions/field
same,IODINE-STAINED INCLUSIONS/FIELD F2,[1]; [3],2 inclusions/field
same,IODINE-STAINED INCLUSIONS/FIELD F3,[1]; [3],6 inclusions/field
same,IODINE-STAINED INCLUSIONS/FIELD F4,[1]; [3],5 inclusions/field
same,IODINE-STAINED INCLUSIONS/FIELD F5,[1]; [3],7 inclusions/field
same,MEAN COUNT/FIELD (iodine-stained inclusions),[1]; [3],5 inclusions/field
same,TOTAL COUNT/FIELDS (iodine-stained inclusions),[1]; [3],23
same,IODINE-STAINED INCLUSIONS/FIELD F1,[1]; [4],1 inclusions/field
same,IODINE-STAINED INCLUSIONS/FIELD F2,[1]; [4],2 inclusions/field
same,IODINE-STAINED INCLUSIONS/FIELD F3,[1]; [4],2 inclusions/field
same,IODINE-STAINED INCLUSIONS/FIELD F4,[1]; [4],1 inclusions/field
same,IODINE-STAINED INCLUSIONS/FIELD F5,[1]; [4],5 inclusions/field
same,MEAN COUNT/FIELD (iodine-stained inclusions),[1]; [4],2 inclusions/field
same,TOTAL COUNT/FIELDS (iodine-stained inclusions),[1]; [4],11
same,IODINE-STAINED INCLUSIONS/FIELD F1,[1]; [5],0 inclusions/field
same,IODINE-STAINED INCLUSIONS/FIELD F2,[1]; [6],0 inclusions/field
same,IODINE-STAINED INCLUSIONS/FIELD F3,[1]; [6],0 inclusions/field
same,IODINE-STAINED INCLUSIONS/FIELD F4,[1]; [6],0 inclusions/field
same,IODINE-STAINED INCLUSIONS/FIELD F5,[1]; [6],0 inclusions/field
same,MEAN COUNT/FIELD (iodine-stained inclusions),[1]; [6],0 inclusions/field
same,COMMENTS: inclusions seen on entire coverslip,[1]; [6],6 inclusions
same,TOTAL COUNT/FIELDS (iodine-stained inclusions),[1]; [6],0
same,inhibition of the infection of McCoy cells with chlamydia,[1],dose-dependent inhibition
same,Syncytia score day 5 (quadruplicate wells),[2]; Conc 0.003 mM,++++ (50-100% syncytia)
same,Syncytia score day 6 (quadruplicate wells),[2]; Conc 0.003 mM,++++ (50-100% syncytia)
same,Mean Optical Readings at 450 nm,[2]; Conc 0.003 mM,0.4883
same,Syncytia score day 5 (quadruplicate wells),[2]; Conc 0.01 mM,++++ (50-100% syncytia)
same,Syncytia score day 6 (quadruplicate wells),[2]; Conc 0.01 mM,++++ (50-100% syncytia)
same,Mean Optical Readings at 450 nm,[2]; Conc 0.01 mM,0.4895
same,Syncytia score day 5 (quadruplicate wells),[2]; Conc 0.03 mM,++++ (50-100% syncytia)
same,Syncytia score day 6 (quadruplicate wells),[2]; Conc 0.03 mM,++++ (50-100% syncytia)
same,Mean Optical Readings at 450 nm,[2]; Conc 0.03 mM,0.4928
same,Syncytia score day 5 (quadruplicate wells),[2]; Conc 0.1 mM,++++ (50-100% syncytia)
same,Syncytia score day 6 (quadruplicate wells),[2]; Conc 0.1 mM,++++ (50-100% syncytia)
same,Mean Optical Readings at 450 nm,[2]; Conc 0.1 mM,0.4983
same,Syncytia score day 5 (quadruplicate wells),[2]; Conc 0.3 mM,+++ (25-50% syncytia)
same,Syncytia score day 6 (quadruplicate wells),[2]; Conc 0.3 mM,++++ (50-100% syncytia)
same,Mean Optical Readings at 450 nm,[2]; Conc 0.3 mM,0.5092
same,Mean Optical Readings at 450 nm,[2]; Conc 1 mM,0.9895
same,IC50,[2]; [7],~1000 µM
same,inhibition at 1000 µM,"[2]; Human immunodeficiency virus 1, C8166, at 1 mM",~50%

# — patent US20050148653A1, “Polymaleimide compounds and their medical use” (priority 2001, published 2005)
